Test results taken from patent US20060166867A1, “Novel conjugates of polysaccharides and uses thereof” (priority 2003, published 2006).
“And” between values parts separate entries of the source, which are not always exact repeats. Equal values may be shown once. Read-outs that look alike come from different tables or passages of the source.

What was measured:
[1] = tested on: Enterococcus faecalis B84939-vancomycin^r; experiment: MIC, broth microdilution; assay type: cell-based; settings: Gram positive clinical isolate
[2] = tested on: P. aeruginosa R17093; experiment: MIC, broth microdilution; assay type: cell-based, Pseudomonas aeruginosa; settings: Gram negative clinical isolate; for MIC: read-out: Minimum Inhibitory Concentration
[3] = tested on: Enterobacter cloacae; settings: Gram negative clinical isolate
[4] = tested on: S. epidermidis MRSE; settings: Gram positive clinical isolate
[5] = tested on: Enterococcus faecium (clinical isolate); experiment: MIC, broth microdilution; assay type: cell-based; settings: Gram positive clinical isolate
[6] = tested on: S. aureus MSSA; settings: Gram positive clinical isolate
[7] = tested on: P. aeruginosa-gentamicin^s, meropenem^s; settings: Gram negative clinical isolate
[8] = tested on: A. baumannii-amikacin^r, meropenem^r; settings: Gram negative clinical isolate
[9] = tested on: K. pneumoniae-ESBL positive; settings: Gram negative clinical isolate
[10] = tested on: K. pneumoniae-ESBL negative; settings: Gram negative clinical isolate
[11] = tested on: Enterococcus faecalis (clinical isolate); settings: Gram positive clinical isolate
[12] = tested on: A. baumannii R16998; settings: Gram negative clinical isolate
[13] = tested on: Enterobacter aerogenes; settings: Gram negative clinical isolate
[14] = tested on: P. aeruginosa-gentamicin^r, meropenem^r; settings: Gram negative clinical isolate
[15] = tested on: Serratia marcescens; settings: Gram negative clinical isolate
[16] = tested on: E. Coli-ESBL positive; settings: Gram negative clinical isolate
[17] = tested on: S. epidermidis B32954; experiment: MIC, broth microdilution; assay type: cell-based, Staphylococcus epidermidis; settings: Gram positive clinical isolate
[18] = tested on: S. aureus MRSA; settings: Gram positive clinical isolate
[19] = tested on: S. epidermidis MSSE; settings: Gram positive clinical isolate
[20] = tested on: E. Coli-ESBL negative; settings: Gram negative clinical isolate
[21] = tested on: A. baumannii-amikacin^s, meropenem^s; settings: Gram negative clinical isolate
[22] = tested on: E. coli U23773^r; settings: Gram negative clinical isolate
[23] = tested on: Enterobacter cloacae W25161; settings: Gram negative clinical isolate
[24] = tested on: HIV-1 IIIB; experiment: microbe, parasite or virus in culture; assay type: cell-based; settings: Table 3; against HIV-1 IIIB virus; read-out: EC50
Description: Inhibition of HIV-1 cell replication was tested using the cMAGI assay, which is based on the ability of HIV-1 TAT to transactivate the expression of an integrated β-galactosidase reporter gene driven by the HIV-LTR (B. Chackeria et al., J. Virol., (1997) 71, 3932; Collins et al., Nat. Med. (2000) 6, 475). The β-galactosidase reporter is modified to remain localized in the nucleus where it can be detected with the X-gal (5-bromo-4-chloro-3indoyl-β-D-galactopyranoside) substrate as an intense nuclear stain within a few days of infection.
(§1) HIV-1 isolates were propagated by subculture in MT2 cells (Litovchick et al. (2001) supra). Aliquots of cell-free culture supernatants were used as viral inoculum. PAACs were dissolved in the RPMI 1640 medium. Cytotoxicity determinations were carried out in MT2 cells by trypan blue exclusion assay. Viral inhibition was determined by incubating MT2 or cMAGI HIV-1 reporter cells with 0.2-0.5 multiplicity of infection of HIV-1 wild type or resistant virus for 4 days at 37° C. in the presence or absence of various concentrations of pAACs. HIV-1 infection of cMAGI cells was determined by counting the number of HIV-1-infected cells (stained blue). The cytopathic effects of the viral infection of MT2 cells were also analyzed by microscopic assessment of syncytium formation.

[25] = tested on: Staphylococcus aureus ATCC 24213; settings: Gram positive reference strain
[26] = tested on: cMAGI cells; settings: FITC derivatives, 5 and 15 μM, 30 minutes at 37° C.
Description: Cellular uptake using pAACs and polyarginine peptide-fluorescent derivatives: cMAGI cells were incubated in a 8-well plate (2000 cells/well) with a pAACs-FITC or a peptide-FITC derivative at a final concentration of 5 and 15 μM, for 30 minutes at 37° C. After incubation, cells were washed 3 times with phosphate buffered saline 3 times and were subjected to confocal microscopy measurements (Olympus IX70 FV500 confocal laser scanning microscope).

[27] = tested on: Escherichia coli ATCC 25922; settings: Gram negative reference strain
[28] = tested on: Proteus mirabilis ATCC 7002; settings: Gram negative reference strain
[29] = tested on: Streptococcus bovis ATCC 9809; experiment: MIC, broth microdilution; assay type: cell-based; settings: Gram positive reference strain
Description: (§2) Minimal Inhibition Concentration (MIC) measurements: The Minimal Inhibitory Concentration (MIC) was generally determined by the Broth Microdilution method (based on the protocol described in Clinical and Laboratory Standard Institute (CLSI) NCCLS (2003) M7-A6), as follows:
(§3) A stock solution of each of the tested compounds was prepared by diluting the compound to a 2,560 μg/ml concentration with an appropriate solvent. The stock solution was then serially 2-fold diluted in 96-well microdilution trays using Cation-Adjusted Mueller-Hinton Broth (CAMHB) until reaching the desired range of concentrations, whereas each well contained double the final working concentration. Each row further had one growth control well (medium+inoculum only), and one sterility control well (medium+tested compound). Plates were stored at −70° C. until used.
(§4) The tested microorganisms were used as fresh overnight cultures on blood agar (for gram-positive organisms) or MacConkey agar (for gram-negatives). A standardized inoculum suspension was prepared by the direct colony suspension method, using sterile saline (equivalent to a 0.5 McFarland standard).
(§5) Thus, 50 μl of the inoculum suspension were added to each tested well (except for the sterility control well), and […] was performed during 18-24 hours (depending on the tested microorganism or compound) at 35° C.

[30] = tested on: E. coli U3075921; experiment: MIC, broth microdilution; assay type: cell-based, Escherichia coli; settings: clinical isolate, Table 7
Description: as §2, §3, §4, §5

[31] = in vitro; assay type: cell-based; settings: human, MT2 cells; Table 3; trypan blue exclusion; read-out: Cytotoxicity
Description: Cytotoxicity of the various pAACs was determined using the trypan blue exclusion assay. In brief, a sample of the cell suspension was diluted 1:1 (v/v) with 0.4% trypan blue and the cells were counted using a hemocytometer. Results are expressed as the percentage of dead cells.
as §1

[32] = tested on: Pseudomonas aeruginosa ATCC 27853; settings: Gram negative reference strain
[33] = tested on: Moraxella catarrhalis ATCC 25238 (Branhamella); settings: Gram negative reference strain
[34] = tested on: VRE faecium; settings: clinical isolate, Table 7
[35] = biological target: T1, CXCR4 (Homo sapiens, UniProt P61073); experiment: Competition with 12G5 mAb binding to CXCR4 on MT2 cells (flow cytometry); settings: 80 μM; read-out: % Inhibition of 12G5 mAb binding to CXCR4
T1 construct: incubated at 4° C. with anti-CXCR4 mAb, 12G5, conjugated to phycoerithrine (PE); endogenous in cells; host or cells: MT2 cells
T1 sequence (P61073 whole entry): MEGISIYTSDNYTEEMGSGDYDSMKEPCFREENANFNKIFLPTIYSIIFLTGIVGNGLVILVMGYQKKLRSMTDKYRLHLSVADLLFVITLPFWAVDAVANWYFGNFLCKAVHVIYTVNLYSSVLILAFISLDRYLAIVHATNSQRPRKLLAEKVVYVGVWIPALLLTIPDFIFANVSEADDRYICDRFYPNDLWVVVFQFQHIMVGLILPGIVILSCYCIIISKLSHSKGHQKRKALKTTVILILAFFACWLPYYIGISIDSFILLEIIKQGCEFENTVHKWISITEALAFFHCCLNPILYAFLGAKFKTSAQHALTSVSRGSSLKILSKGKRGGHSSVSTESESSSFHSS
Description: Interaction of pAACs and arginine peptides with CXCR4 coreceptor: Interactions of pAACs and arginine-peptides with CXCR4 were determined by flow cytometry (FACS-Scan, Becton Dickinson) as previously described (Litovich (2001) supra). In brief, 0.5×10^6 MT2 cells were washed with ice-cold PBS containing 0.1% sodium azide (wash buffer) and were incubated at 4° C. with anti-CXCR4 mAb, 12G5, conjugated to phycoerithrine (PE), in the absence or presence of different concentrations of pAACs and arginine peptides. After 30 minutes of incubation, the cells were washed with ice-cold wash buffer and fixed in PBS containing 1% paraformaldehyde. Non-specific fluorescence was assessed using an isotype control. For each sample 10,000 events were acquired. Data were analyzed and processed using CellQuest™ software (Becton Dickinson).

[36] = tested on: Acinetobacter baumannii ATCC 19606; settings: Gram negative reference strain
[37] = tested on: Klebsiella pneumoniae ATCC 13883; settings: Gram negative reference strain
[38] = read-out: Minimum Inhibitory Concentration

Compound | Minimum Inhibitory Concentration [3] | Minimum Inhibitory Concentration [4] | Minimum Inhibitory Concentration [6] | Minimum Inhibitory Concentration [7] | Minimum Inhibitory Concentration [8] | Minimum Inhibitory Concentration [9] | Minimum Inhibitory Concentration [10] | Minimum Inhibitory Concentration [11] | Minimum Inhibitory Concentration [13] | Minimum Inhibitory Concentration [14] | Minimum Inhibitory Concentration [15] | Minimum Inhibitory Concentration [16] | Minimum Inhibitory Concentration [18] | Minimum Inhibitory Concentration [19] | Minimum Inhibitory Concentration [20] | Minimum Inhibitory Concentration [21] | EC50 [24] | also measured
L-Arg-9-mer-neomycin [Compound 8] | 8.0 mg/liter and 2.74 μM | 0.5 mg/liter and 0.17 μM | 4.0 mg/liter and 1.37 μM | 48.0 mg/liter and 16.44 μM | 128.0 mg/liter and 43.83 μM | 1.5 mg/liter and 0.51 μM | 3.0 mg/liter and 1.03 μM | 256.0 mg/liter and 87.67 μM | 8.0 mg/liter and 2.74 μM | 128.0 mg/liter and 43.83 μM | 4.0 mg/liter and 1.37 μM | 8.0 mg/liter and 2.74 μM | 2.0 mg/liter and 0.68 μM | 0.5 mg/liter and 0.17 μM | 4.0 mg/liter and 1.37 μM | 6.0 mg/liter and 2.06 μM | 30 ± 7 µM | Minimum Inhibitory Concentration [1]: 32.0 mg/L; MIC [1, 38]: 10.96 µM; Minimum Inhibitory Concentration [2]: 128.0 mg/L; MIC ([2]; listed as L-Neo-9-mer): 43.83 µM; MIC [2]: 43.83 µM; Minimum Inhibitory Concentration [5]: 32.0 mg/L; MIC [5, 38]: 10.96 µM; Minimum Inhibitory Concentration ([8]; listed as L-Neo-9-mer): 57.92 µM; Minimum Inhibitory Concentration [12]: 128.0 mg/liter and 43.83 μM; Minimum Inhibitory Concentration [17]: 0.5 mg/L; MIC [17, 38]: 0.17 µM; Minimum Inhibitory Concentration [22]: 96.0 mg/liter and 32.88 μM; Minimum Inhibitory Concentration ([22]; listed as L-Neo-9-mer): 32.88 µM; Minimum Inhibitory Concentration [23]: 8.0 mg/liter and 2.74 μM
N=C(N)NCCC[C@H](NC(=O)[C@H](CCCNC(=N)N)NC(=O)[C@H](CCCNC(=N)N)NC(=O)[C@H](CCCNC(=N)N)NC(=O)[C@H](CCCNC(=N)N)NC(=O)[C@H](CCCNC(=N)N)NC(=O)[C@H](CCCNC(=N)N)NC(=O)[C@H](CCCNC(=N)N)NC(=O)[C@@H](N)CCCNC(=N)N)C(=O)O [Compound 5, L-Arg-9-mer-NH2] | > 256.0 mg/liter and 126.50 μM | 32.0 mg/liter and 15.81 μM | 128.0 mg/liter and 63.25 μM | > 256.0 mg/liter and 126.50 μM | > 256.0 mg/liter and 126.50 μM | > 256.0 mg/liter and 126.50 μM | > 256.0 mg/liter and 126.50 μM | 128.0 mg/liter and 63.25 μM | > 256.0 mg/liter and 126.50 μM | > 256.0 mg/liter and 126.50 μM | > 256.0 mg/liter and 126.50 μM | 256.0 mg/liter and 126.50 μM | > 128.0 mg/liter and 63.25 μM | 12.0 mg/liter and 5.93 μM | > 256.0 mg/liter and 126.50 μM | > 256.0 mg/liter and 126.50 μM | 33 µM | Minimum Inhibitory Concentration [25]: 128.0 mg/liter and 63.25 μM; cellular uptake [26]: lower uptake efficiency; Minimum Inhibitory Concentration [27]: > 256.0 mg/liter and 126.50 μM; Minimum Inhibitory Concentration [28]: > 256.0 mg/liter and 126.50 μM; Minimum Inhibitory Concentration [29]: 128.0 mg/L; Minimum Inhibitory Concentration [30]: > 256.0 mg/L; CC50 [31]: 120 µM; Minimum Inhibitory Concentration [32]: > 256.0 mg/liter and 126.50 μM; Minimum Inhibitory Concentration [33]: 32.0 mg/liter and 15.81 μM; Minimum Inhibitory Concentration [34]: > 128.0 mg/L; inhibition at 80 µM [35]: 52.8%; Minimum Inhibitory Concentration [36]: > 256.0 mg/liter and 126.50 μM; Minimum Inhibitory Concentration [37]: > 256.0 mg/liter and 126.50 μM
